Measured values published in PubChem BioAssay AID624132 (Broad Institute, 2012).
Inconclusive results are not listed.

system: Clone20 osteoblast Shn3 3'UTR firefly luciferase, 24 h; test: reduction of Shn3 3'UTR-driven luciferase in osteoblasts – cell-based, Clone20 osteoblasts, firefly luciferase, cherry-picked, dose response (AID 624132)

`CC1=CC2OC3CC4OC(=O)C=CC=CC(C(C)O)OCC(O)C5(C)OC5C(=O)OCC2(CC1O)C4(C)C31CO1` (stereo not drawn) and `CC1=CC2OC3CC4OC(=O)C=CC=CC(C(C)O)OCC(O)C(C)CC(=O)OCC2(CC1O)C4(C)C31CO1` (stereo not drawn) cannot be ordered by AC50: under 260 nM for the first, under 260 nM for the second.

Going from `C[C@H]1[C@@H](OS(=O)(=O)O)C[C@@H]2C[C@H]([C@@H](O)c3cc(=O)[nH]c(=O)[nH]3)NC3=NC[C@H]1N32` to `CC1=CC2OC3CC4OC(=O)C=CC=CC(=O)OCCC(C)C(O)C(=O)OCC2(CC1O)C4(C)C31CO1` (stereo not drawn), the AC50 falls from 1320 nM to under 260 nM.

First: CC(=O)OC1C(=O)OCC23CCC4(C)OC4C2OC2CC(OC(=O)C=CC=CC(=O)OCCC1C)C3(C)C21CO1 (stereo not drawn)
Second: CC(=O)OC1CC2OC3C=C(C)CCC3(C)C1(C)C21CO1 (stereo not drawn)
The AC50 of the first is lower: under 260 nM for the first, 829 nM for the second.

`CC(=O)OC[C@]12CCC(C)=C[C@H]1O[C@@H]1[C@H](O)[C@@H](OC(C)=O)[C@@]2(C)[C@]12CO2` and `CC(=O)OCC12CC(OC(=O)CC(C)C)C(C)=CC1OC1C(O)C(OC(C)=O)C2(C)C12CO2` (stereo not drawn) cannot be ordered by AC50: under 260 nM for the first, under 260 nM for the second.
